US20250049033A1, “PESTICIDALLY ACTIVE PYRIDAZINONE COMPOUNDS” (SYNGENTA CROP PROTECTION AG, priority 2021, published 2025)

Legend:
Format in all cases: in vivo
Diabrotica balteata = assay: Activity against Diabrotica balteata (corn root worm), maize sprouts, L2 larvae; details: 96 h, application rate 200 ppm, 4 days after infestation, vs untreated, read-out: control in at least one of the two categories (mortality or growth inhibition)
Method: Example B2: Activity Against Diabrotica balteata (Corn Root Worm)
Maize sprouts placed onto an agar layer in 24-well microtiter plates were treated with aqueous test solutions prepared from 10′000 ppm DMSO stock solutions by spraying. After drying, the plates were infested with L2 larvae (6 to 10 per well). The samples were assessed for mortality and growth inhibition in comparison to untreated samples 4 days after infestation.

Spodoptera littoralis = assay: Activity against Spodoptera littoralis (Egyptian cotton leaf worm), cotton leaf discs, L1 larvae; details: foliar, 72 h, application rate 200 ppm, 3 days after infestation, vs untreated, read-out: control in at least one of the three categories (mortality, anti-feedant effect, or growth inhibition)
Method: Example B8: Activity Against Spodoptera littoralis (Egyptian Cotton Leaf Worm)
Cotton leaf discs were placed onto agar in 24-well microtiter plates and sprayed with aqueous test solutions prepared from 10′000 ppm DMSO stock solutions. After drying the leaf discs were infested with five L1 larvae. The samples were assessed for mortality, anti-feeding effect, and growth inhibition in comparison to untreated samples 3 days after infestation. Control of Spodoptera littoralis by a test sample is given when at least one of the categories mortality, anti-feedant effect, and growth inhibition is higher than the untreated sample.

Euschistus heros = assay: Activity against Euschistus heros (neotropical brown stink bug), soybean leaves, N2 nymphs; details: 120 h, application rate 200 ppm, 5 days after infestation, vs untreated, read-out: effect in at least one of the two categories (mortality or growth inhibition)
Method: Example B3: Activity Against Euschistus heros (Neotropical Brown Stink Bug)
Soybean leaves on agar in 24-well microtiter plates were sprayed with aqueous test solutions prepared from 10′000 ppm DMSO stock solutions. After drying the leaves were infested with N2 nymphs. The samples were assessed for mortality and growth inhibition in comparison to untreated samples 5 days after infestation.

Chilo suppressalis = assay: Activity against Chilo suppressalis (striped rice stemborer), artificial diet, L2 larvae; details: 144 h, application rate 200 ppm, 6 days after infestation, vs untreated, read-out: control in at least one of the three categories (mortality, anti-feedant effect, or growth inhibition)
Method: Example B1: Activity Against Chilo suppressalis (Striped Rice Stemborer)
24-well microtiter plates with artificial diet were treated with aqueous test solutions prepared from 10′000 ppm DMSO stock solutions by pipetting. After drying, the plates were infested with L2 larvae (6-8 per well). The samples were assessed for mortality, anti-feeding effect, and growth inhibition in comparison to untreated samples 6 days after infestation. Control of Chilo suppressalis by a test sample is given when at least one of the categories mortality, anti-feedant effect, and growth inhibition is higher than the untreated sample.

Myzus persicae = assay: Activity against Myzus persicae (green peach aphid), intrinsic activity; details: 120 h, test rate 12 ppm, 5 days after infestation, sucrose solution through Parafilm
Description: Example B6: Activity Against Myzus persicae (Green Peach Aphid). Intrinsic Activity
Test compounds prepared from 10′000 ppm DMSO stock solutions were applied by pipette into 24-well microtiter plates and mixed with sucrose solution. The plates were closed with a stretched Parafilm. A plastic stencil with 24 holes was placed onto the plate and infested pea seedlings were placed directly on the Parafilm. The infested plate was closed with a gel blotting paper and another plastic stencil and then turned upside down. The samples were assessed for mortality 5 days after infestation.

Plutella xylostella = assay: Activity against Plutella xylostella (diamond back moth), artificial diet, eggs; details: 192 h, application rate 200 ppm, 8 days after infestation, vs untreated, read-out: control in at least one of the two categories (mortality or growth inhibition)
Method: Example B7: Activity Against Plutella xylostella (Diamond Back Moth)
24-well microtiter plates with artificial diet were treated with aqueous test solutions prepared from 10′000 ppm DMSO stock solutions by pipetting. After drying, Plutella eggs were pipetted through a plastic stencil onto a gel blotting paper and the plate was closed with it. The samples were assessed for mortality and growth inhibition in comparison to untreated samples 8 days after infestation. The following compounds gave an effect of at least 80% control in at least one of the two categories (mortality or growth inhibition) at an application rate of 200 ppm: P1, P2, P3, P4, P6, P7, P8, P9, P10, P11, P12, P13, P14, P15, P16, P17, P18, P19, P20, P21, P22, P23, P24, P25, P26, P27.

C[C@H](Nc1ncnc2c(I)cc(Cl)cc12)c1ncnn1C1=NN(C)C(=O)CC1 [P25, 6-[5-[(1S)-1-[(6-chloro-8-iodo-quinazolin-4-yl)amino]ethyl]-1,2,4-triazol-1-yl]-2-methyl-4,5-dihydropyridazin-3-one]
≥ 80%: percent control (mortality or growth inhibition) at 200 ppm (Diabrotica balteata) | percent control (mortality, anti-feedant effect or growth inhibition) at 200 ppm (Spodoptera littoralis) | percent effect (mortality or growth inhibition) at 200 ppm (Euschistus heros) | percent control (mortality, anti-feedant effect or growth inhibition) at 200 ppm (Chilo suppressalis) | mortality at 12 ppm (Myzus persicae) | percent control (mortality or growth inhibition) at 200 ppm (Plutella xylostella)

C[C@@H](c1ncnn1-c1ccc(=O)n(C)n1)N(C)c1ncnc2c(Cl)cc(C(F)(F)F)cc12 [P23, 6-[5-[(1S)-1-[[8-chloro-6-(trifluoro-methyl)quinazolin-4-yl]-methyl-amino]ethyl]-1,2,4-triazol-1-yl]-2-methyl-pyr-idazin-3-one]
≥ 80%: percent control (mortality or growth inhibition) at 200 ppm (Diabrotica balteata) | percent control (mortality, anti-feedant effect or growth inhibition) at 200 ppm (Spodoptera littoralis) | percent effect (mortality or growth inhibition) at 200 ppm (Euschistus heros) | percent control (mortality, anti-feedant effect or growth inhibition) at 200 ppm (Chilo suppressalis) | mortality at 12 ppm (Myzus persicae) | percent control (mortality or growth inhibition) at 200 ppm (Plutella xylostella)

C[C@H](Nc1ncnc2c(Cl)cc(C(F)(F)F)cc12)c1ncnn1-c1ccc(=O)n(C)n1 [P16, 6-[5-[(1S)-1-[[8-chloro-6-(trifluoro-methyl)quinazolin-4-yl]amino]ethyl]-1,2,4-triazol-1-yl]-2-methyl-pyrid-azin-3-one]
≥ 80%: percent control (mortality or growth inhibition) at 200 ppm (Diabrotica balteata) | percent control (mortality, anti-feedant effect or growth inhibition) at 200 ppm (Spodoptera littoralis) | percent effect (mortality or growth inhibition) at 200 ppm (Euschistus heros) | percent control (mortality, anti-feedant effect or growth inhibition) at 200 ppm (Chilo suppressalis) | mortality at 12 ppm (Myzus persicae) | percent control (mortality or growth inhibition) at 200 ppm (Plutella xylostella)

C[C@H](Nc1nc(=O)n(C)c2c(Cl)cc(C(F)(F)F)cc12)c1ncnn1-c1ccc(=O)n(C)n1 [P1, 8-chloro-1-methyl-4-[[(1S)-1-[2-(1-methyl-6-oxo-pyridazin-3-yl)-1,2,4-triazol-3-yl]ethyl]amino]-6-(trifluoromethyl)quinazolin-2-one]
≥ 80%: percent effect (mortality or growth inhibition) at 200 ppm (Euschistus heros) | percent control (mortality, anti-feedant effect or growth inhibition) at 200 ppm (Chilo suppressalis) | percent control (mortality or growth inhibition) at 200 ppm (Plutella xylostella)

C[C@H](Nc1ncnc2c(Br)cc(Br)cc12)c1ncnn1-c1ccc(=O)n(C)n1 [P18, 6-[5-[(1S)-1-[(6,8-dibromoquinazolin-4-yl)amino]ethyl]-1,2,4-triazol-1-yl]-2-methyl-pyridazin-3-one]
≥ 80%: percent control (mortality or growth inhibition) at 200 ppm (Plutella xylostella)

C[C@@H](c1ncnn1C1=NN(C)C(=O)CC1)N(C)c1ncnc2c(I)cc(Cl)cc12 [P26, 6-[5-[(1S)-1-[(6-chloro-8-iodo-quinazolin-4-yl)-methyl-amino]ethyl]-1,2,4-triazol-1-yl]-2-methyl-4,5-dihydropyridazin-3-one]
≥ 80%: percent control (mortality or growth inhibition) at 200 ppm (Diabrotica balteata) | percent control (mortality, anti-feedant effect or growth inhibition) at 200 ppm (Spodoptera littoralis) | percent effect (mortality or growth inhibition) at 200 ppm (Euschistus heros) | percent control (mortality, anti-feedant effect or growth inhibition) at 200 ppm (Chilo suppressalis) | mortality at 12 ppm (Myzus persicae) | percent control (mortality or growth inhibition) at 200 ppm (Plutella xylostella)

C[C@H](Nc1ncnc2c(I)cc(Cl)cc12)c1ncnn1-c1ccc(=O)n(C)n1 [P11, 6-[5-[(1S)-1-[(6-chloro-8-iodo-quinazolin-4-yl)-amino]ethyl]-1,2,4-triazol-1-yl]-2-methyl-pyridazin-3-one]
≥ 80%: percent control (mortality, anti-feedant effect or growth inhibition) at 200 ppm (Spodoptera littoralis) | percent effect (mortality or growth inhibition) at 200 ppm (Euschistus heros) | percent control (mortality, anti-feedant effect or growth inhibition) at 200 ppm (Chilo suppressalis) | mortality at 12 ppm (Myzus persicae) | percent control (mortality or growth inhibition) at 200 ppm (Plutella xylostella)
